{"source": "patent US20190151229A1", "about": "“USE OF AN ESSENTIAL OIL OF EVERLASTING FLOWER IN ORDER TO INCREASE OR RESTORE TACTILE PERCEPTION” (LABORATOIRES M&L, priority 2016, published 2019)", "test_system": "human sensory neurons", "experiment": "Effect on neurite growth in co-culture of human sensory neurons and keratinocytes", "format": "cell-based", "details": "NGF at 50 ng/ml, 6 days, vs control medium, p<0.05", "description": "Sensory neurons are derived from iPS cells (induced Pluripotent Stem cells) which are themselves obtained from human fibroblasts. The iPSs were seeded into six-well plates coated with a thin layer of Matrigel® (Corning) in a proportion of 250 000 cells per well in a differentiation medium consisting of DMEM-F12 (Panbiotech) supplemented with 10% of Knockout Serum Replacement (KSR, Life technologies), 5 μM of CHIR 99021 (Tocris), 0.1 μM of retinoic acid (Sigma), 1 μg/ml of EPO (Erythropoietin; Peprotech), a cocktail of central differentiation pathway inhibitors and 1% of PS antibiotics (Penicilin-Streptomycin; Panbiotech). The cells were maintained in culture for 6 days at 37° C. and 5% CO2. The culture medium was changed every 2 days. Under these culture conditions, the iPSs differentiate into human sensory neurons.\nAt this stage, the cells were dissociated using accutase (Sigma Aldrich) for 10 minutes at 37° C. The reaction was stopped by adding culture medium. The cell suspension was centrifuged for 5 minutes at 1200 rpm. […]\nTwenty photographs per culture well were taken with the automatic microscope (InCell 2000; GE Healthcare) at a ×20 magnification and the cell bodies of the sensory neurons were counted. […]", "data": [{"substance": "NGF: reference molecule; nerve growth factor, naturally present in the epithelium, known to stimulate neurite extension in vitro", "values": [{"measurement": "increase in the length of the projections of the human sensory neurons", "result": "+22.8%"}]}]}
